Here are results for 2 molecules from US8188268B2, “Porous crystalline saccharide, its preparation and uses” (Kabushiki Kaisha Hayashibara Seibutsu Kagaku Kenkyujo, priority 2005, dated 2012).

Common to all, as to assay type: physicochemical
Data set [1] can be described thus: Flax seed oil powder: keeping of powdery form. Particulars: 1 part flax seed oil + 10 parts saccharide as base. As to the method:
One part by weight of flax seed oil was admixed with 10 parts by weight of the porous anhydrous crystalline trehalose, prepared by treating at 70° C. for 60 min in Example 1, and then the mixture was kneaded to make into a powdery product. In the same manner, powdery products were prepared by using “TREHA®”, hydrous crystalline trehalose commercialized by Hayashibara Shoji Inc., Okayama, Japan, and anhydrous crystalline trehalose, prepared from hydrous crystalline trehalose by drying in vacuo at a high temperature according to the conventional method, as controls. […] The flaxseed oil powder can be preferably used as a supplement.

Data set [2] in a line: Specific surface area by nitrogen adsorption isotherms (BET). Particulars: nitrogen adsorption isotherms, BET; listed as Anhydrous crystalline trehalose (Conventional product, Control). As for the experimental part: Specific surface area of the porous anhydrous crystalline trehalose was measured by the nitrogen adsorption isotherms using “MODEL ASAP-2400”, a specific surface area/pore size distribution analyzer commercialized by Micromeritics, Georgia, USA. […] The result was analyzed by the BET (Brunnauer, Emmet, and Teller) method. The commercial anhydrous crystalline trehalose, a reagent grade, commercialized by Hayashibara Biochemical Laboratories Inc., Okayama, Japan, was used as a control. […] Further, those pore size distribution charts are in FIG. 19. […] The results of the analysis on the specific surface area and the pore size distribution are summarized in Table 7, and the pore size distribution chart was in FIG. 24. As a control, “MALTOSE OM”, a hydrous crystalline maltose product with maltose purity of 98% or higher, produced by Hayashibara Co., Ltd., Okayama, Japan, was used.

Data set [3] in a line: Pore size distribution by the mercury filling method.
The nature of data set [4]: Oil-keeping ability with salad oil. Also on record: key to Oil-keeping ability: (5 g salad oil / g saccharide added at endpoint) x 100. Particulars: (5 g salad oil / amount of added saccharide) x 100. As for the experimental part: The oil-keeping ability of each crystalline saccharide was measured using the porous anhydrous crystalline trehalose prepared by treating at 70° C. for 60 min in Example 1, the control hydrous crystalline trehalose, and the control anhydrous crystalline trehalose as crystalline trehalose samples; and the porous anhydrous crystalline maltose prepared by the method in Example 3, the control hydrous crystalline β-maltose, and the control anhydrous crystalline α-maltose, and the control anhydrous crystalline β-maltose as crystalline maltose samples, and the results were compared.
The measurement of the oil-keeping ability of the crystalline saccharide was carried out according to the method disclosed in Japanese Patent Kokai No. 31,650/84. Five grams of “NISSHIN SALAD OIL”, a salad oil commercialized by Nisshin OiliO Group, Ltd., Tokyo, Japan, was placed in a 50-ml plastic container, and then gradually admixed with each powdery crystalline saccharide with stirring. […] When the amount of the mixed saccharide is further increased, the agglomerate increase in solidity and then loosen. The point that the agglomerate is loosened is estimated to be the endpoint and the oil-keeping ability was calculated using the following formula. Oil-Keeping Ability =(The amount of salad oil(5 g)/the amount of added PCS*)×100 *: Powdery crystalline saccharide tm Formula 1

Data set [5] in a line: Preservation test of flax seed oil powder, volatile aldehydes by GC. Particulars: flax seed oil powder with this base. As for the experimental part:
As disclosed in Japanese Patent Kokai No. 123,195/2001 applied for by the same applicant of the present invention, it has been known that trehalose inhibits the decomposition of fatty acids and the formation of volatile aldehydes. Therefore, a preservation test of the flax seed oil powders were carried out according to the following method by using the flax seed oil powders prepared in Example 9 by using the porous anhydrous crystalline trehalose of the present invention or the control anhydrous crystalline trehalose as powderizing bases, and the amounts of the formed volatile aldehydes were compared.
One gram each of the flax seed oil powder was put into two 20 ml-vial, sealed with Butyl-rubber stopper, and then preserved in an incubator at 40° C. for three weeks. The vial was collected at the point of before the preservation or after preserving for 21 days and heated at 80° C. for 5 min. Then, 2 ml of vapor phase gas in the vial was directly subjected to gas chromatography (GC) analysis to determine the amount of volatile aldehydes. GC analysis was carried out according to the following conditions.
• Gas chromatograph: GC-17B, produced by Shimadzu Corporation, Kyoto, Japan; • Column: TC-FFAP capillary column (ID 0.52 mm×30 m), produced by GL Sciences Inc., Tokyo, Japan; • Column temperature: 40° C. to 100° C.

Data set [6] can be described thus: Dissolution test against cold water at 10° C. To be noted: 20 ml water 10° C., about 300 rpm, 0.5 g trehalose or 0.2 g maltose; for Time required for dissolution, Average: average of 5. As for the experimental part:
A dissolution test against cold water at 10° C. was carried out using the porous anhydrous crystalline trehalose prepared by treating at 70° C. for 60 min in Example 1, the porous anhydrous crystalline maltose prepared by the method in Example 3, and the porous hydrous crystalline maltose prepared by the method in Example 5, as samples. The results were compared with those of the controls, anhydrous crystalline trehalose, hydrous crystalline trehalose, and hydrous crystalline maltose.
Twenty milliliters of 10° C.-cold water was placed in a test tube with an internal diameter of 18 mm, and then stirred using a stirring bar. A crystalline saccharide sample was put into the test tube, and the time required for the complete dissolution (for the disappearance of precipitate particles) was measured. The amount of samples was set to be 0.5 g in the case of trehalose and to be 0.2 g in the case of maltose, and the stirring rate was set to be about 300 rpm in any case. The measurement of time for dissolution under the above conditions was carried out 5-times at each sample.

The mark [7] stands for this setting: listed as control anhydrous crystalline trehalose.
The mark [8] stands for this setting: 21 days after preservation at 40° C.
Where [9] appears, read: listed as control hydrous crystalline trehalose.

Where two headings read alike, the source gives them in different places.

Take `OC[C@H]1O[C@H](O[C@H]2O[C@H](CO)[C@@H](O)[C@H](O)[C@H]2O)[C@H](O)[C@@H](O)[C@@H]1O` [Anhydrous crystalline trehalose (Control)] [α-D-glucosyl α-D-glucoside, reference compound]: the “Powdery form of flax seed oil powder” value in data set [1] (setting [7]) is reported as “could not keep powdery forms”. The Specific surface area in data set [2] worked out at 0.465 m^2/g. In addition, in data set [3], the Intrusion volume was 0.03 mL/g and the Mode pore diameter is given as 0.46 μm. The molecule also returned a Median pore diameter in data set [3] (control maltose values are from space between particles, not pores) of 0.40 μm. In addition, the Intrusion volume in data set [3] (setting [7]) worked out at 0.03 mL/g. For the same molecule, the Oil-keeping ability in data set [4] is 38.5. The same molecule showed an Oil-keeping ability in data set [4] (setting [7]) of 38.5. Moreover, in data set [5] (setting [8]), the “2,4-Decadienal” value is on record as 7.01 μg/ml-vapor phase gas, the 2-Heptenal was determined as 0.01 μg/ml-vapor phase gas, the 2-Hexenal is on record as 0.02 μg/ml-vapor phase gas and the 2-Nonenal turned out to be 0.27 μg/ml-vapor phase gas. Moreover, in data set [5] (setting [8]), the 2-Octenal turned out to be 0.66 μg/ml-vapor phase gas, the Acetoaldehyde was 8.99 μg/ml-vapor phase gas, the Butanal is on record as 0.93 μg/ml-vapor phase gas and the Hexanal worked out at 0.16 μg/ml-vapor phase gas. In data set [5] (setting [8]), this molecule had a Pentanal of 0.55 μg/ml-vapor phase gas, a Propanal of 12.98 μg/ml-vapor phase gas and a Total aldehydes of 31.58 μg/ml-vapor phase gas. In addition, in data set [5] (before preservation), the “2,4-Decadienal” value was found to be 6.77 μg/ml-vapor phase gas, the 2-Heptenal worked out at 0.00 μg/ml-vapor phase gas, the 2-Hexenal turned out to be 0.00 μg/ml-vapor phase gas and the 2-Nonenal amounted to 0.01 μg/ml-vapor phase gas. In data set [5] (before preservation), this molecule registered a 2-Octenal of 0.23 μg/ml-vapor phase gas, an Acetoaldehyde of 8.91 μg/ml-vapor phase gas, a Butanal of 0.66 μg/ml-vapor phase gas and a Hexanal of 0.07 μg/ml-vapor phase gas. In data set [5] (before preservation), this molecule displayed a Pentanal of 0.13 μg/ml-vapor phase gas, a Propanal of 10.24 μg/ml-vapor phase gas and a Total aldehydes of 27.02 μg/ml-vapor phase gas. Moreover, in data set [6], the “Time required for dissolution, No. 1” value worked out at 90 s; the “Time required for dissolution, No. 2” value was found to be 87 s; the “Time required for dissolution, No. 3” value stood at 96 s; the “Time required for dissolution, No. 4” value was 91 s. Moreover, in data set [6], the “Time required for dissolution, No. 5” value amounted to 86 s and the “Time required for dissolution, Average” value was 90 s.
With `OC[C@H]1O[C@H](O[C@H]2O[C@H](CO)[C@@H](O)[C@H](O)[C@H]2O)[C@H](O)[C@@H](O)[C@@H]1O` [Hydrous crystalline trehalose (Control), α-D-glucosyl α-D-glucoside], in data set [1] (setting [9]), the “Powdery form of flax seed oil powder” value was “could not keep powdery forms”. The same molecule gave an Oil-keeping ability in data set [4] of 38.5. Besides, the Oil-keeping ability in data set [4] (setting [9]) came out at 38.5. In addition, in data set [6], the “Time required for dissolution, No. 1” value worked out at 106 s; the “Time required for dissolution, No. 2” value came out at 130 s; the “Time required for dissolution, No. 3” value was 121 s; the “Time required for dissolution, No. 4” value is 135 s. In addition, in data set [6], the “Time required for dissolution, No. 5” value came to 123 s and the “Time required for dissolution, Average” value was found to be 123 s.
